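Values below derive from 48-hour exposures of cells grown in 96-well plates, with endpoints linearly interpolated between the two concentrations bracketing the appropriate inhibition level. At the GI50, growth is halved.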 The source made the active and inactive calls. Rule as the data show it: active = GI50 up to about 1.1 µM and inactive = higher. Some results are limits rather than exact numbers.

The values that follow come from ChEMBL document CHEMBL1201862, “PubChem BioAssay data set” (2004).

Common to all, as to assay: growth of human tumour cells (NCI), 48 h
The test system of assay [1] is ACHN.
In assay [2] the test system is COLO 205.
In assay [3] the test system is HCT-116.
Assay [4] deals with HCT-15.
Assay [5] relates to HOP-92.
For assay [6], the system named is MDA-N.
Assay [7] has as its system MOLT-4.
The test system of assay [8] is Malme-3M.
For assay [9], the system named is NCI-H226.
Assay [10] relates to NCI/ADR-RES.
In assay [11] the test system is OVCAR-3.
The test system of assay [12] is OVCAR-4.
For assay [13], the system named is OVCAR-5.
The subject of assay [14] is SF-539.
The subject of assay [15] is SK-MEL-2.
In assay [16] the test system is SR.
The subject of assay [17] is UACC-62.
The test system of assay [18] is SNB-75.

For `C=C1C(=O)O[C@@H]2/C=C(\C)CC/C=C(\C)CC[C@@]12O`, the GI50 in [1] is 1.59 µM (inactive); in [2], 1.84 µM (inactive); in assay [3], 2.42 µM (inactive); in assay [4], 2.82 µM; in [5], 1.78 µM (inactive); in assay [6], 2.25 µM (inactive). Moreover, the GI50 was 1.41 µM (inactive) in assay [7]; 1.53 µM (inactive) in [8]; 13.8 µM (inactive) in assay [9]; 10.6 µM (inactive) in [10]; 2.4 µM (inactive) in [11]; 1.98 µM (inactive) in [12]. For the same compound, the GI50 is 11.4 µM (inactive) in assay [13]; 1.2 µM (inactive) in assay [14]; 9.38 µM (inactive) in assay [15]; 2.42 µM (inactive) in [16]; 9.35 µM (inactive) in assay [17].

As for `COc1ccc(CNc2nc(NCc3ccc(OC)cc3)nc(NC3CCCCC3)n2)cc1`, the GI50 in assay [1] is 5.11 µM (inactive); in assay [2], 1.94 µM (inactive); in assay [3] it was 3.12 µM (inactive); in assay [4] it was 2.13 µM; in assay [5] it was 24 µM (inactive); in assay [6], 0.65 µM (active). Further, the GI50 is > 100 µM (inactive) in [7]; 0.225 µM (active) in assay [8]; 1.93 µM (inactive) in [9]; 1.8 µM (inactive) in assay [10]; 2.2 µM (inactive) in [11]; 10 µM (inactive) in assay [12]. Besides, the GI50 is 4.99 µM (inactive) in assay [13]; 3.01 µM (inactive) in [14]; 2.81 µM (inactive) in [15]; 3.29 µM (inactive) in assay [16]; 2 µM (inactive) in assay [17].

Take `O=C(O)c1cccc(OCCO)c1`: the GI50 in assay [1] is > 100 µM (inactive); in assay [2] it was > 100 µM (inactive); in [3], > 100 µM (inactive); in assay [4], more than 100 µM; in [5] it was > 100 µM (inactive); in assay [6], > 100 µM (inactive). The GI50 in assay [7], in assay [8], in assay [9], in assay [10], in assay [11] and in [12] was > 100 µM (inactive) in each case. For the same compound, the GI50 in assay [13], in assay [14], in assay [15], in assay [16] and in assay [17] was > 100 µM (inactive) throughout.

In the case of `CS(=O)(=O)OCC1OC(n2ccc(NC(=O)c3ccccc3)nc2=O)CC1OS(C)(=O)=O` (centres undefined), the GI50 in [1] is > 100 µM (inactive); in assay [2], > 100 µM (inactive); in assay [3] it was > 100 µM (inactive); in assay [4], more than 100 µM; in assay [6], > 100 µM (inactive); in assay [7], > 100 µM (inactive). In addition, the GI50 in [9], in assay [10], in [11], in [12], in [13] and in assay [14] was > 100 µM (inactive) in each case. The GI50 in [15], in [18], in [16] and in assay [17] was > 100 µM (inactive) throughout.

Turning to `OCC1c2ccccc2-n2nc(-c3ccccc3)c(O)c21` (centres undefined), the GI50 in assay [1] was 16.8 µM (inactive); in [2], 13.5 µM (inactive); in assay [3] it was > 10 µM (inactive); in assay [4], 14.9 µM; in [5] it was 16.9 µM (inactive); in assay [6], 46.1 µM (inactive). The GI50 is 31 µM (inactive) in assay [7]; 17.1 µM (inactive) in assay [8]; 79.4 µM (inactive) in assay [9]; 18.6 µM (inactive) in [10]; 26.7 µM (inactive) in assay [11]; 26.9 µM (inactive) in assay [12]. The GI50 in [13] is > 100 µM (inactive); in assay [14], 43.1 µM (inactive); in assay [15] it was 15.9 µM (inactive); in assay [18], 68.9 µM (inactive); in [17] it was 20.7 µM (inactive).
